For assay [1], the system named is Hepatocyte. Put plainly: Antihyperglycemic activity in Sprague-Dawley rat hepatocytes assessed as inhibition of glucose production at 40 uM after 6 hrs by glucose oxidase activity assay. The assay is classed as functional.
The target in assay [2] is T1, Angiotensin-converting enzyme (Oryctolagus cuniculus) (UniProt P12822).
T1 sequence (whole entry): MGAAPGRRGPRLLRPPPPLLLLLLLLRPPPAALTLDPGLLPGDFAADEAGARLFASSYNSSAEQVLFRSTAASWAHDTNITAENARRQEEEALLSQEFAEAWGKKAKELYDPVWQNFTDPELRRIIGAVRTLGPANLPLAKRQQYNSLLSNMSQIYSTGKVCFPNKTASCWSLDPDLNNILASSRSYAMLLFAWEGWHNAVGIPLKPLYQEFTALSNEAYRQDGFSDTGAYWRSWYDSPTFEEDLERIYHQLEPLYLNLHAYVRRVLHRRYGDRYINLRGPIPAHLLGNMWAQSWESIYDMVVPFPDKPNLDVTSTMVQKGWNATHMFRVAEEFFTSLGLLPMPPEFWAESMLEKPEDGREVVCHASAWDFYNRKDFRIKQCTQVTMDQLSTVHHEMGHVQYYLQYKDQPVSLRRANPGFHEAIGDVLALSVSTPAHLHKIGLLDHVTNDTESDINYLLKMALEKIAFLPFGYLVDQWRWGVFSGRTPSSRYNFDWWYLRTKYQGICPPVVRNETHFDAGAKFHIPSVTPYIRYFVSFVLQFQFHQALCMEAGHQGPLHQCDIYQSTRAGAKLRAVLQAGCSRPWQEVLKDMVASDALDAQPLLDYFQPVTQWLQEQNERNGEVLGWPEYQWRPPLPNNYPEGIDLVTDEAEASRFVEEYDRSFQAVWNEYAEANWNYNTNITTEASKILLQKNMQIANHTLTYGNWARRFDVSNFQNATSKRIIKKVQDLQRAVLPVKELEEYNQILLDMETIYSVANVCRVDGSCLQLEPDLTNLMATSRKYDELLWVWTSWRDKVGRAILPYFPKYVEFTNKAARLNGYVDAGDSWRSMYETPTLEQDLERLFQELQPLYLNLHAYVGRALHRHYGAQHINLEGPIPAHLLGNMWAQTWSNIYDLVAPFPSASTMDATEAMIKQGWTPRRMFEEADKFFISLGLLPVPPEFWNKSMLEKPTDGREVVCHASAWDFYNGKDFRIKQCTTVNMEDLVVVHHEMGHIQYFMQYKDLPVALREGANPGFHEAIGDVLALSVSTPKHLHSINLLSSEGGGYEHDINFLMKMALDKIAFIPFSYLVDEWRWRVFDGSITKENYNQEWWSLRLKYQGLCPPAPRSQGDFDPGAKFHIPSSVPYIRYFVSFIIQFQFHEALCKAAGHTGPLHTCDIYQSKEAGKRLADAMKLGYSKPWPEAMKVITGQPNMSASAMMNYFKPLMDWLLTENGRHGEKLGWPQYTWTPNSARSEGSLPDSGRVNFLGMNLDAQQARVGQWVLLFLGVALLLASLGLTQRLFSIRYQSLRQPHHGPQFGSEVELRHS
Briefly: Inhibition of rabbit lung ACE using hippuryl-histidyl-leucine as substrate assessed as hippuric acid formation at 10 mM by UPLC-MS analysis.

In the next assay the test system is Saccharomyces cerevisiae. Briefly: Inhibition of Saccharomyces cerevisiae alpha-glucosidase using 4-nitrophenyl alpha-glucopyranoside as substrate at 6.25 mM preincubated for 10 mins followed by substrate addition measured after 20 mins by spectrophotometric analysis.
The subject of assay [3] is Hepatocyte. Briefly: Antihyperglycemic activity in Sprague-Dawley rat hepatocytes assessed as inhibition of glucose production at 2 mM after 6 hrs by glucose oxidase activity assay. It is filed as functional.

`CC(C)=CCC[C@@H](C(=O)O)[C@@H]1CN(CC(O)CCO)C(=N)N1` (stereo partly specified): the inhibition at 40 µM in the assay on Hepatocyte [1] worked out at 18.5%.
On to `CC1(C)C[C@]2(O)C[C@@H](C(=O)[O-])[C@@H]3CNC(=[N+]32)N1`, for which the inhibition amounted to 26% in assay [2] and 20% in the assay on Saccharomyces cerevisiae. The inhibition at 40 µM in the assay with Hepatocyte [1] is 8.2%.
`CC(C)=CCC[C@@H](C(=O)O)[C@@H]1CNC(=N)N1`: the inhibition at 40 µM with Hepatocyte [1] was found to be 12.5%.
Consider `CN(C)C(=N)NC(=N)N` [METFORMIN], for which, in the assay on Hepatocyte [3], the inhibition at 2000 µM came to 25%.

Source of the values: ChEMBL document CHEMBL3739390, “Plantadeprate A, a Tricyclic Monoterpene Zwitterionic Guanidium, and Related Derivatives from the Seeds of Plantago depressa” (2015).
